Results taken from ChEMBL document CHEMBL5050834, “Cyclic trex1 inhibitors” (2021).

Experiment: Inhibition of human TREX1 exonuclease activity using labeled DNA oligonucleotide as substrate incubated for 30 mins and measured after 45 mins by fluorescence assay

| Compound | IC50 |
| --- | --- |
| N[C@@H]1C[C@H]2C(=O)N([C@H](CCC(=O)O)C(=O)NCc3ccc(Cl)c(Cl)c3)CCC(COc3cnccn3)N2C1 (some centres not stated) | in the range around 1000 nM |
| N[C@@H]1C[C@H]2C(=O)N([C@H](CCC(=O)NO)C(=O)NCc3ccc(Cl)c(Cl)c3)CCC(CCc3ccccc3)N2C1 (some centres not stated) | < 1000 nM |
| COC(=O)CC[C@H](C(=O)NCc1ccc(Cl)cn1)N1CCC(CCc2ccccc2)N2C[C@H](N)C[C@H]2C1=O (some centres not stated) | < 1000 nM |
| N[C@@H]1C[C@H]2C(=O)N([C@H](CCC(=O)O)C(=O)N3CCCC[C@H]3c3ccc(Cl)c(Cl)c3)CCC(CCc3ccccc3)N2C1 (some centres not stated) | < 1000 nM |
| N[C@@H]1C[C@H]2C(=O)N([C@H]3CCCN(C(=O)c4ccc(Cl)c(Cl)c4)C3)CCC(CCc3ccccc3)N2C1 (mixture of isomers) | in the range around 10000 nM |
| CS(=O)(=O)NCC[C@H](C(=O)NCc1ccc(Cl)c(Cl)c1)N1CCC(CCc2ccccc2)N2C[C@H](N)C[C@H]2C1=O (some centres not stated) | < 1000 nM |
| N#CCC[C@H](C(=O)NCc1ccc(Cl)c(Cl)c1F)N1CCC(CCc2ccccc2)N2C[C@H](N)C[C@H]2C1=O (some centres not stated) | < 1000 nM |
| N[C@@H]1C[C@H]2C(=O)N([C@H](CSc3ccccc3O)C(=O)NCc3ccc(Cl)c(Cl)c3)CCC(CCc3ccccc3)N2C1 (some centres not stated) | < 1000 nM |
| N[C@@H]1C[C@H]2C(=O)N([C@H](CCC(=O)O)C(=O)NCc3ccc(Cl)cn3)CCC(CCc3ccccc3)N2C1 (some centres not stated) | < 1000 nM |
| N[C@@H]1C[C@H]2C(=O)N([C@H](CCC(=O)O)C(=O)NCc3ccc(Cl)c(Cl)c3)CCC(COc3cccc(F)c3)N2C1 (some centres not stated) | < 1000 nM |
| NC(=O)C[C@H](C(=O)NCc1ccc(Cl)c(Cl)n1)N1CCC(CCc2ccccc2)N2C[C@H](N)C[C@H]2C1=O (some centres not stated) | < 1000 nM |
| CN(Cc1ccc(Cl)c(Cl)c1)C(=O)[C@@H](CC#N)N1CCC(CCc2ccccc2)N2C[C@H](N)C[C@H]2C1=O (some centres not stated) | < 1000 nM |
| N[C@@H]1C[C@H]2C(=O)N([C@H](CCC(=O)O)C(=O)NCc3ccc(Cl)c(Cl)c3)CCC(COc3cccc(Cl)c3)N2C1 (some centres not stated) | < 1000 nM |
| N#CCC[C@H](C(=O)NCc1ccc(Cl)c(Cl)c1)N1CCC(COc2ccc(F)cc2)N2C[C@H](N)C[C@H]2C1=O (some centres not stated) | < 1000 nM |
| CC(C)C[C@H](C(=O)N[C@@H](C)c1ccccc1)N1CCC(CCc2ccccc2)N2C[C@H](N)C[C@H]2C1=O (some centres not stated) | in the range around 1000 nM |
| CCOC(=O)CC[C@H](C(=O)NCc1ccc(Cl)c(Cl)c1)N1CCC(CCc2ccccc2)N2C[C@H](N)C[C@H]2C1=O (some centres not stated) | < 1000 nM |
| CC(C)C[C@H](CNS(=O)(=O)c1ccc(Cl)c(Cl)c1)N1CCC(CCc2ccccc2)N2C[C@H](N)C[C@H]2C1=O (some centres not stated) | < 1000 nM |
| CCOC(=O)CC[C@H](C(=O)NCc1cc(Cl)c(Cl)cc1F)N1CCC(CCc2ccccc2)N2C[C@H](N)C[C@H]2C1=O (some centres not stated) | < 1000 nM |
| CC(C)C[C@H](C(=O)N(C)Cc1ccc(Cl)c(Cl)c1)N1CCC(CCc2ccccc2)N2C[C@H](N)C[C@H]2C1=O (some centres not stated) | < 1000 nM |
| COc1c(CNC(=O)[C@@H](CCC(N)=O)N2CCC(CCc3ccccc3)N3C[C@H](N)C[C@H]3C2=O)ccc(Cl)c1Cl (some centres not stated) | < 1000 nM |
| N[C@@H]1C[C@H]2C(=O)N([C@H]3CCCN(S(=O)(=O)c4ccc(Cl)c(Cl)c4)C3)CCC(CCc3ccccc3)N2C1 (some centres not stated) | in the range around 1000 nM |
| CC(C)Oc1c(CNC(=O)[C@@H](CCC#N)N2CCC(CCc3ccccc3)N3C[C@H](N)C[C@H]3C2=O)ccc(Cl)c1Cl (some centres not stated) | < 1000 nM |
| Cn1c(Cl)ccc(CNC(=O)[C@@H](CCC(=O)O)N2CCC(CCc3ccccc3)N3C[C@H](N)C[C@H]3C2=O)c1=O (some centres not stated) | < 1000 nM |
| CC(C)OC(=O)CC[C@H](C(=O)NCc1ccc(Cl)c(Cl)c1)N1CCC(CCc2ccccc2)N2C[C@H](N)C[C@H]2C1=O (some centres not stated) | < 1000 nM |

| Compound | IC50 |
| --- | --- |
| CC(C)C[C@H](C(=O)NCc1ccc(Cl)c(Cl)c1)N1CCC(CS(=O)(=O)c2ccccc2)N2C[C@H](N)C[C@H]2C1=O (some centres not stated) | in the range around 1000 nM |
| COc1c(CNC(=O)[C@@H](CCc2nnn[nH]2)N2CCC(CCc3ccccc3)N3C[C@H](N)C[C@H]3C2=O)ccc(Cl)c1Cl (some centres not stated) | < 1000 nM |
| N#CC[C@H](C(=O)N1CCc2cc(Cl)c(Cl)cc2C1)N1CCC(CCc2ccccc2)N2C[C@H](N)C[C@H]2C1=O (some centres not stated) | in the range around 1000 nM |
| N[C@@H]1C[C@H]2C(=O)N([C@H](CCC(=O)O)C(=O)NCc3ccc(Cl)c(Cl)c3)CCC(COc3ccc(Cl)cc3)N2C1 (some centres not stated) | < 1000 nM |
| N[C@@H]1C[C@H]2C(=O)N([C@H](CCC(=O)O)C(=O)NCc3ccc(Cl)c(Cl)c3)CCC(CCOc3ccccc3)N2C1 (some centres not stated) | in the range around 1000 nM |
| N[C@@H]1C[C@H]2C(=O)N([C@@H]3CCCN(S(=O)(=O)c4ccc(Cl)c(Cl)c4)C3)CCC(CCc3ccccc3)N2C1 (some centres not stated) | < 1000 nM |
| COc1c(CNC(=O)[C@@H](CCC(=O)O)N2CCC(CCc3ccccc3)N3C[C@H](N)C[C@H]3C2=O)ccc(Cl)c1Cl (some centres not stated) | < 1000 nM |
| N#CC[C@H](C(=O)N1CCOC[C@H]1c1ccccc1)N1CCC(CCc2ccccc2)N2C[C@H](N)C[C@H]2C1=O (some centres not stated) | in the range around 1000 nM |
| N[C@@H]1C[C@H]2C(=O)N([C@H](CCC(=O)O)C(=O)NCc3ccc(Cl)c(Cl)c3)CCC(COc3ccccc3Cl)N2C1 (some centres not stated) | < 1000 nM |
| NC(=O)CC[C@H](C(=O)NCc1ccc(Cl)c(Cl)c1F)N1CCC(CCc2ccccc2)N2C[C@H](N)C[C@H]2C1=O (some centres not stated) | < 1000 nM |
| N[C@@H]1C[C@H]2C(=O)N([C@H](CCC(=O)O)C(=O)NCc3cc(Cl)c(Cl)cc3F)CCC(CCc3ccccc3)N2C1 (some centres not stated) | < 1000 nM |
| CCOC(=O)CC[C@H](C(=O)NCc1ccc(Cl)c(Cl)c1F)N1CCC(CCc2ccccc2)N2C[C@H](N)C[C@H]2C1=O (some centres not stated) | < 1000 nM |
| N[C@@H]1C[C@H]2C(=O)N([C@H]3CCN(Cc4ccc(Cl)c(Cl)c4)C3=O)CCC(CCc3ccccc3)N2C1 (some centres not stated) | < 1000 nM |
| Cc1nnc(CC[C@H](C(=O)NCc2ccc(Cl)c(Cl)c2F)N2CCC(CCc3ccccc3)N3C[C@H](N)C[C@H]3C2=O)[nH]1 (some centres not stated) | < 1000 nM |
| N[C@@H]1C[C@H]2C(=O)N([C@@H]3CCCN(S(=O)(=O)c4ccccc4)C3)CCC(CCc3ccccc3)N2C1 (some centres not stated) | in the range around 10000 nM |
| CCOC(=O)CC[C@H](C(=O)NCc1cc(Cl)c(Cl)cc1OC)N1CCC(CCc2ccccc2)N2C[C@H](N)C[C@H]2C1=O (some centres not stated) | < 1000 nM |
| CC(C)Oc1c(CNC(=O)[C@@H](CCC(=O)O)N2CCC(CCc3ccccc3)N3C[C@H](N)C[C@H]3C2=O)ccc(Cl)c1Cl (some centres not stated) | < 1000 nM |
| COC(=O)CC[C@H](C(=O)NS(=O)(=O)c1ccc(Cl)c(Cl)c1)N1CCC(CCc2ccccc2)N2C[C@H](N)C[C@H]2C1=O (some centres not stated) | < 1000 nM |
| CCN(CC)C(=O)COC(=O)CC[C@H](C(=O)NCc1ccc(Cl)c(Cl)c1)N1CCC(CCc2ccccc2)N2C[C@H](N)C[C@H]2C1=O (some centres not stated) | < 1000 nM |
| NC(=O)CC[C@H](C(=O)N1Cc2cc(Cl)c(Cl)cc2C1)N1CCC(CCc2ccccc2)N2C[C@H](N)C[C@H]2C1=O (some centres not stated) | in the range around 10000 nM |
| COc1ccc(CNC(=O)[C@@H](CC(C)C)N2CCC(CCc3ccccc3)N3C[C@H](N)C[C@H]3C2=O)cc1Cl (some centres not stated) | < 1000 nM |
| CNC(=O)CC[C@H](C(=O)NCc1ccc(Cl)c(Cl)c1)N1CCC(CCc2ccccc2)N2C[C@H](N)C[C@H]2C1=O (some centres not stated) | < 1000 nM |
| N[C@@H]1C[C@H]2C(=O)N([C@H](CCC(=O)O)C(=O)NCc3ccc(Cl)c(Cl)n3)CCC(CCc3ccccc3)N2C1 (some centres not stated) | < 1000 nM |
